According to publication PMC5680308, “Binding of mycotoxins to proteins involved in neuronal plasticity: a combined in silico/wet investigation” (Scientific Reports, 2017):
Where two headings read alike, the source gives them in different places.

Experiments:
[1] = target: T1, Human recombinant neuroligin 4-X linked (NLGN4X) (Homo sapiens, UniProt Q8N0W4); assay: biochemical; assay type: binding; conditions: for Kd: read-out: dissociation constant (kD)
[2] = target: T1, Human recombinant neuroligin 4-X linked (NLGN4X); assay: Microscale thermophoresis (MST) assay; assay type: binding
[3] = target: T2, human recombinant acetylcholinesterase (AChE) (Homo sapiens, UniProt P22303); assay: Microscale thermophoresis (MST) assay; assay type: binding
T2 construct: purchased Sigma Aldrich (Milano, Italy)
T2 sequence (P22303 32-614): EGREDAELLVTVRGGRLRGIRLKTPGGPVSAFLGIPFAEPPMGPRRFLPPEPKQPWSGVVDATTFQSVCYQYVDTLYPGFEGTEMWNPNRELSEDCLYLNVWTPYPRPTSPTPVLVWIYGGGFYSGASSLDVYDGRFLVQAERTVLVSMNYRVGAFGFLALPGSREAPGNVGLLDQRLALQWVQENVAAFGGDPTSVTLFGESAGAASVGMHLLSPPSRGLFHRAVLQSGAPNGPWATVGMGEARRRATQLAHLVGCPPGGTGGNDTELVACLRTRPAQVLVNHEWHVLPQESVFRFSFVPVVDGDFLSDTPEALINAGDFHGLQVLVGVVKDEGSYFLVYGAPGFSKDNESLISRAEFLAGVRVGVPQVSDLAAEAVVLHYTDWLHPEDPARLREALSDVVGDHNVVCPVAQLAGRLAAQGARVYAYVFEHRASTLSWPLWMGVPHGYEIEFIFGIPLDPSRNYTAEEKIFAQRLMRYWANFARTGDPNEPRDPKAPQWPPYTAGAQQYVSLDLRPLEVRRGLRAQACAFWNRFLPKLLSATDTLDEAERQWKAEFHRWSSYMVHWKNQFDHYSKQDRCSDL

[4] = target: T2, human recombinant acetylcholinesterase (AChE); assay: Fluorescence steady-state binding experiments (intrinsic Trp fluorescence); conditions: pH 7.4

T1 sequence (Q8N0W4 42-676 limits assumed): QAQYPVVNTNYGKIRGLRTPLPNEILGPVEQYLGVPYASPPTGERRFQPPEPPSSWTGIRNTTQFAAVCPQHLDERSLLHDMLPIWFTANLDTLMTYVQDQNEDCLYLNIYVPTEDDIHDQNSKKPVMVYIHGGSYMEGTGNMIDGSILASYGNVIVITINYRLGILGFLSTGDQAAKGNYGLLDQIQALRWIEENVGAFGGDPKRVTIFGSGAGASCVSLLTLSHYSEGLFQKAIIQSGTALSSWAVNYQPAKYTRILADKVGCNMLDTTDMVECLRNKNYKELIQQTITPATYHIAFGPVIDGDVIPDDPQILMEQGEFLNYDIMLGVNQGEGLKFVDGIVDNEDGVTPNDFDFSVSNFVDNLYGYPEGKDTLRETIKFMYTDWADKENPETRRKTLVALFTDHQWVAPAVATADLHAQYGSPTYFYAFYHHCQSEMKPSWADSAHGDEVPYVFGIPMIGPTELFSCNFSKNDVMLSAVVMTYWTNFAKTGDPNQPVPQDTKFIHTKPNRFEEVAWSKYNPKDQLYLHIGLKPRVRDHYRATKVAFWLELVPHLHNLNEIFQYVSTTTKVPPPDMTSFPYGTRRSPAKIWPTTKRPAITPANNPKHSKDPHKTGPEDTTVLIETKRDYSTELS

Compound: COc1cc2c(c3oc(=O)c4c(c13)CCC4=O)[C@@H]1CCO[C@@H]1O2 [Aflatoxin B2, aflatoxin B2]
- quenching / decrease of the protein fluorescence emission intensity ([1]; pH 7.4): about 11%
- Kd ([1]; pH 7.4): 0.0103 µM
- Kd ([2]; pH 7.4, read-out: kD for the binding site at higher affinity): 0.0566 µM
- interaction with the protein in MST [3]: did not confirm this prediction

Compound: CC1=C[C@H]2O[C@@H]3[C@H](O)C[C@](C)([C@@]2(CO)[C@H](O)C1=O)[C@]31CO1 [Deoxynivalenol, deoxynivalenol]
- quenching / decrease of the protein fluorescence emission intensity ([1]; pH 7.4): 17%

Compound: CN1C(=O)[C@]23CC4=CC=C[C@H](O)[C@H]4N2C(=O)[C@@]1(CO)SS3 [Gliotoxin, gliotoxin]
- Kd ([1]; Trp fluorescence emission variation, PBS buffer pH 7.4, 25 °C, non-linear regression): 0.307 µM
- quenching / decrease of the protein fluorescence emission intensity ([1]; pH 7.4): about 17%
- Kd ([2]; MST, PBS buffer pH 7.4, 25 °C, read-out: kD): 1.52 µM
- interaction with the protein in MST ([3]; result in words, data not shown): did not confirm this prediction

Compound: Aflatoxin B1
- decrease of the fluorescence emission spectrum at increasing concentrations of the toxin [1]: did not show a significant decrease
- effect on Trp fluorescence emission at increasing toxin concentration [4]: a quenching effect was registered
- interaction with the protein in MST ([2]; pH 7.4): no evidence of the interaction
- Kd ([3]; pH 8): 8.4 ± 0.694 µM
